# Data reported in patent US9394318B2, “Crystal polymorph of magnesium glycinate dihydrate and process for its preparation” (Cypress Pharmaceutical, Inc., priority 2012, dated 2016).
# Assays:
# [1] = 4.0 mL PBS + 20 mg binder, mixed 1 h at room temperature; hypothetical results; dihydrate
# Procedure: Exemplary stock solutions suitable for phosphate-binding assays include the following: phosphate-binding solution (“PBS”) containing 10 mM KH2PO4, 30 mM Na2CO3, 80 mM NaCl, as described in Rosenbaum et al. Nephrol. Dial. Transplant. 12:961-964 (1997); acetate buffer (“AB”) solution containing 0.1N acetic acid, 0.025N sodium acetate, as described in Lowry & Lopez J. Biol. Chem. 162:421-428 (1946); ammonium molybdate (“AM”) solution containing 1% ammonium molybdate in 0.05N H2SO4, as described in Lowry & Lopez; ascorbic acid (“AA”) solution containing 1% ascorbic acid in H2O, as described in Lowry & Lopez.
# In general, the phosphate-binding assays are conducted in 12×75 mm glass tubes. 4.0 mL PBS and 20 mg putative phosphate binder are added to a glass tube and then mixed for 1 h at room temperature. 0.1 mL supernatant is pipetted from this tube to a new test tube. 3.0 mL AB, 0.3 mL AA and 0.3 mL AM solutions are added and O.D. is measured at 700 nm after 10 minutes.
# The phosphate binding capacity was calculated as follows (mcg stands for micrograms): ((O.D. of sample×95)/O.D. of standard)×40=(mcg)PO4 left in solution ((3800(mcg)PO4 left)×50)/1000=(mcg)PO4 bound per gram of phosphate binder.
# The phosphate binding capacities of samples of magnesium glycinate dihydrate produced by the process of Example 1 are measured. X-ray powder diffraction is conducted on each of the samples to verify that they consist of the polymorph described in Example 2.
# [2] = as described in the '012 application, cited from earlier work
Compound,PO4 binding [1],further results
"O=C1C[NH][Mg]2([OH])([OH])([NH]CC(=O)[O]2)[O]1 [Sample 1, magnesium glycinate dihydrate]",175.0 mg/g,
"O=C1C[NH][Mg]2([OH])([OH])([NH]CC(=O)[O]2)[O]1 [Sample 2, magnesium glycinate dihydrate]",177.0 mg/g,
"O=C1C[NH][Mg]2([OH])([OH])([NH]CC(=O)[O]2)[O]1 [Sample 3, magnesium glycinate dihydrate]",176.2 mg/g,
"O=C1C[NH][Mg]2([OH])([OH])([NH]CC(=O)[O]2)[O]1 [Sample 4, magnesium glycinate dihydrate]",178.1 mg/g,
[Cl-].[Cl-].[Mg+2] [magnesium chloride],,ability to bind phosphate ([2]; formed from magnesium glycinate and stomach acid (HCl)): does not have the ability to bind phosphate in appreciable quantities
magnesium glycinate [magnesium glycinate salt],,ability to bind phosphate per gram ([2]; in vitro phosphate binding assay): at least 50 mg phosphate per gram
